The values that follow come from ChEMBL document CHEMBL2073963, “Transport of methotrexate (MTX) and folates by multidrug resistance protein (MRP) 3 and MRP1: effect of polyglutamylation on MTX transport” (Cancer Res, 2001).

What all share (format): functional, cell membranes
What all share (parameters): scale not given: the % may be the effect or the level left

The target of assay [1] is Multidrug resistance associated protein (Homo sapiens) (UniProt Q96QA9). Kind of assay: TP_TRANSPORTER: inhibition of MTX uptake (MTX: 1 uM, E217betaG: 100 uM) in membrane vesicles from MRP3-expressing HEK293 cells. Particulars: Membrane vesicle.
The target is the same in assay [2]. Kind of assay: TP_TRANSPORTER: inhibition of MTX uptake (MTX: 1 uM, PAK-104P: 100 uM) in membrane vesicles from MRP3-expressing HEK293 cells. The following applies: Membrane vesicle.
The target is the same in assay [3]. Kind of assay: TP_TRANSPORTER: inhibition of MTX uptake (MTX: 1 uM, DOX;G: 300 uM) in membrane vesicles from MRP3-expressing HEK293 cells. The following applies: Membrane vesicle.
The target is the same in assay [4]. Kind of assay: TP_TRANSPORTER: inhibition of MTX uptake (MTX: 1 uM, MK571: 100 uM) in membrane vesicles from MRP3-expressing HEK293 cells. Particulars: Membrane vesicle.
Assay [5] has the same target. Kind of assay: TP_TRANSPORTER: inhibition of MTX uptake (MTX: 1 uM, VP-16: 300 uM) in membrane vesicles from MRP3-expressing HEK293 cells. The following applies: Membrane vesicle.
The target is the same in assay [6]. Kind of assay: TP_TRANSPORTER: inhibition of MTX uptake (MTX: 1 uM, PSC-833: 10 uM) in membrane vesicles from MRP3-expressing HEK293 cells. The following applies: Membrane vesicle.
The target is the same in assay [7]. Briefly: TP_TRANSPORTER: inhibition of MTX uptake (MTX: 1 uM, GC: 300 uM) in membrane vesicles from MRP3-expressing HEK293 cells. The following applies: Membrane vesicle.
The target is the same in assay [8]. Briefly: TP_TRANSPORTER: inhibition of MTX uptake (MTX: 1 uM, AG-A: 1000 uM) in membrane vesicles from MRP3-expressing HEK293 cells. Particulars: Membrane vesicle.
Assay [9] has the same target. Briefly: TP_TRANSPORTER: inhibition of MTX uptake (MTX: 1 uM, Vincristine: 300 uM) in membrane vesicle from MRP3-expessing HEK 293 cell. The following applies: HEK293.

Multidrug resistance associated protein (Homo sapiens), sequence (Q96QA9 as listed by the source): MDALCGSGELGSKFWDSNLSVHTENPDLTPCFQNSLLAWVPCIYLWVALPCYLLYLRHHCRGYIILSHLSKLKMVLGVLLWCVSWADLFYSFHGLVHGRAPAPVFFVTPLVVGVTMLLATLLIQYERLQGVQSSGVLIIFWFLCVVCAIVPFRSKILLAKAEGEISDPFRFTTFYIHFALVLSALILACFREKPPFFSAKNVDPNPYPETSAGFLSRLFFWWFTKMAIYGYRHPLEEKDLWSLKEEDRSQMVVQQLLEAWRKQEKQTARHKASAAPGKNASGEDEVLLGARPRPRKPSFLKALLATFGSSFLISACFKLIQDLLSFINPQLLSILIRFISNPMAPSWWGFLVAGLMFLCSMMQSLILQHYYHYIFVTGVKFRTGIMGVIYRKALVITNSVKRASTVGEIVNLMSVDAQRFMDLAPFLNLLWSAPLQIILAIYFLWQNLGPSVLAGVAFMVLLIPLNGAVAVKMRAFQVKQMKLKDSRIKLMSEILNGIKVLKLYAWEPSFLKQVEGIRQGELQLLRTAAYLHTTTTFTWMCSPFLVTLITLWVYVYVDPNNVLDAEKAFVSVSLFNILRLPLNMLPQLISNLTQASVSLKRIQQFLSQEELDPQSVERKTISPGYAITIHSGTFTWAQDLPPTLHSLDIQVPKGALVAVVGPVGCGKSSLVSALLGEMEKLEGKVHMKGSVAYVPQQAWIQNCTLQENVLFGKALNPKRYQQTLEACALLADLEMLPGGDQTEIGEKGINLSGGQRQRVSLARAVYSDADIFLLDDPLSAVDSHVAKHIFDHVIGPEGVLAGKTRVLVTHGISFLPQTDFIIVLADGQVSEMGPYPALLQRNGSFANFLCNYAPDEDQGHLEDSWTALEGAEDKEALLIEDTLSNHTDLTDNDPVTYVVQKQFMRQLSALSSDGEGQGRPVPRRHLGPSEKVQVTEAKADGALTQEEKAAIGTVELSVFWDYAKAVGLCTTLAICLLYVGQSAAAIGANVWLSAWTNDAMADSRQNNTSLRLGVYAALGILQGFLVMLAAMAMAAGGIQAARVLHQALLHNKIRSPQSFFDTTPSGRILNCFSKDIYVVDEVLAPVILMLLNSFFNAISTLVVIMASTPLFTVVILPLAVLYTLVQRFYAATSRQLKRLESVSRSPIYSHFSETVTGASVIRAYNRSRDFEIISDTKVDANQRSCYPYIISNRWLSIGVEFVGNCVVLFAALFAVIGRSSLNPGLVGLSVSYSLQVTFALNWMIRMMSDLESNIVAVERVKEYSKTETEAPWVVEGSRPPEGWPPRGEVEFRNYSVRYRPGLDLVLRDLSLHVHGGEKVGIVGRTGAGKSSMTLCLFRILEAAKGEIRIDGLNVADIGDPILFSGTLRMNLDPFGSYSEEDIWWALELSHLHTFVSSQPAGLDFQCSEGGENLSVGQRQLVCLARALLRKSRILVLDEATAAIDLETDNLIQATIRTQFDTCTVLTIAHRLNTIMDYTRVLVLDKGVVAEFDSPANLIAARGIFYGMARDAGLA

Take `C[C@]12CC[C@@H]3c4ccc(O)cc4CC[C@H]3[C@@H]1CC[C@@H]2O[C@@H]1O[C@H](C(=O)O)[C@@H](O)[C@H](O)[C@H]1O`: in [1], the Activity was 8.27%.

For the compound `Cc1nc(C)c(P2(=O)O[C@H](C)C[C@@H](C)O2)c(-c2cccc([N+](=O)[O-])c2)c1C(=O)OCCN1CCN(C(c2ccccc2)c2ccccc2)CC1` (some centres undefined), the Activity in assay [2] is 3%.

Turning to `COc1cccc2c1C(=O)c1c(O)c3c(c(O)c1C2=O)C[C@@](O)(C(=O)CO)C[C@@H]3O[C@H]1C[C@H](N)[C@H](O)[C@H](C)O1`, in assay [3], the Activity is 80%.

For `CN(C)C(=O)CCSC(SCCC(=O)O)c1cccc(/C=C/c2ccc3ccc(Cl)cc3n2)c1` (centres undefined), the Activity in assay [4] was 2.3%.

Regarding `COc1cc([C@@H]2c3cc4c(cc3[C@@H](O[C@@H]3O[C@@H]5CO[C@@H](C)O[C@H]5[C@H](O)[C@H]3O)[C@H]3COC(=O)[C@H]23)OCO4)cc(OC)c1O`, in assay [5], the Activity is 3.47%.

As for `C/C=C/C[C@@H](C)C(=O)[C@H]1C(=O)N[C@@H](C(C)C)C(=O)N(C)CC(=O)N(C)[C@@H](CC(C)C)C(=O)N[C@@H](C(C)C)C(=O)N(C)[C@@H](CC(C)C)C(=O)N[C@@H](C)C(=O)N[C@H](C)C(=O)N(C)[C@@H](CC(C)C)C(=O)N(C)[C@@H](CC(C)C)C(=O)N(C)[C@@H](C(C)C)C(=O)N1C`, the Activity in assay [6] is 61.4%.

Consider `C[C@H](CCC(=O)NCC(=O)O)[C@H]1CC[C@H]2[C@@H]3[C@H](O)C[C@@H]4C[C@H](O)CC[C@]4(C)[C@H]3C[C@H](O)[C@]12C`, for which, in assay [7], the Activity is 10.4%.

Take `CC(=O)O[C@@H]1[C@@H]2[C@@H](OC(C)=O)C=C3[C@H]([C@H](O)C[C@]4(C)[C@@H]([C@H](C)[C@H](O)CCC(C)C)CC[C@@H]34)[C@@]2(C)CC[C@@H]1OC(C)=O`: the Activity in assay [8] is 56.9%.

On to `CC[C@]1(O)C[C@H]2CN(CCc3c([nH]c4ccccc34)[C@@](C(=O)OC)(c3cc4c(cc3OC)N(C=O)[C@H]3[C@@](O)(C(=O)OC)[C@H](OC(C)=O)[C@]5(CC)C=CCN6CC[C@]43[C@@H]65)C2)C1`, for which, in [9], the Activity was 39.1%.
